“Also recorded” adds a separate entry of the source. Marks after values point to notes of the source that are not given here.

The subject of test [1] is Sweet cherry cv. ‘Bing’ trees. Briefly: BABA spray in the field; flower fate of limbs in programmable freeze chamber; fruit set, fruit size, leaf area, leaf chlorophyll on other limbs. In kind it is in vivo, sweet cherry (Prunus avium). The procedure: Sweet cherry cv. ‘Bing’ trees were sprayed in the field with BABA and the fate of flowers from randomly selected sample limbs placed in a programmable freeze chamber was evaluated. Random limbs were removed from the freeze chamber within 10 minutes of reaching selected air temperatures, and were left at room temperature for 1 hour. Pistil/ovary survival was then assessed visually on every flower. Flowers with healthy green stylar and ovary tissue were rated as live. Flowers with discolored (for example, brown) stylar or ovary tissues were rated as dead. Fruit set, fruit size, average leaf area, and leaf chlorophyll content index were evaluated on other limbs of the treated trees.

Another test concerns ‘Fuji’ apple trees. Briefly: BABA at different bud development stages; branches in programmable freeze chamber five days later. In kind it is in vivo, apple (Malus domestica). The settings on record: treated 5 days before cold exposure; all developmental stages, except for full opened flowers; compared to control. As for the experimental part: BABA was also applied to ‘Fuji’ apple trees at different bud development stages. Five days later, treated and untreated (control) branches were collected and placed in a programmable freeze chamber. Flowers killed were evaluated as described above. BABA decreased the percentage of flowers killed as compared to control at all developmental stages, except for full opened flowers (FIG. 2).

The subject of test [2] is sweet cherry cultivar ‘Bing’. The test is described as follows: Autumn application of BABA, natural frost damage the following spring. In kind it is in vivo, sweet cherry (Prunus avium). An excerpt:
(§1) Application of BABA to sweet cherry cultivars ‘Bing,’ ‘Chelan,’ and ‘Van’ in autumn decreased the percentage of flowers killed after natural frost damage the following spring (FIG. 3). […] Bing after spring frost damage (FIG. 4).

Test [3] has as its system sweet cherry cultivar ‘Chelan’. The description is as above. The class given is in vivo, sweet cherry (Prunus avium).
From the text: as §1

For test [4], the system named is sweet cherry cultivar ‘Van’. The description is as above. The class given is in vivo, sweet cherry (Prunus avium).
From the text: as §1

The next test concerns plum cv. ‘PP7524-7’. Briefly: BABA application in the spring 4-7 days prior to frost exposure. The conditions noted are these: application 4-7 days prior to frost; following spring frost damage. In kind it is in vivo. An excerpt:
Finally, BABA application in the spring 4-7 days prior to frost exposure increased fruit set in plum cv. ‘PP7524-7’ following spring frost damage (FIG. 5).

The test system of another test is sweet cherry cv. ‘Bing’. Briefly: CPA applied at full bloom; fruit set and fruit size at harvest. In kind it is in vivo, sweet cherry (Prunus avium). The procedure:
Plant growth regulators were applied to limbs of sweet cherry cv. ‘Bing’ at full bloom when essentially all flowers were open. Fruit set was recorded as a percent of available flowers from flower counts made prior to application and fruit counts made just prior to harvest. Fruit set in trees treated with 4-chlorophenoxyacetic acid (CPA) at 10 or 30 ppm was higher than untreated control in both small and large scale trials (FIG. 18). […] (Table 2).

Test [5] has as its system sweet cherry cultivar ‘Tieton’. The test is described as above. The class given is in vivo, sweet cherry (Prunus avium). The settings on record: 30 ppm CPA at full bloom.
In test [6] the test system is sweet cherry cultivar ‘8011-3’. The description is as above. The class given is in vivo, sweet cherry (Prunus avium). The settings on record: 30 ppm CPA at full bloom.
Test [7] concerns sweet cherry cv ‘Bing’ on ‘Gisela® 1’ rootstock. The test is described as follows: Experiment 1: limb trial of PCa and GAs alone or in combination, applied 30 days after anthesis. In kind it is in vivo, sweet cherry (Prunus avium). The conditions noted are these: for Firmness / Fruit diameter / Fruit weight / TSS: applied at 30 days after anthesis, PCa 150 mg/L, GAs 30 mg/L, at harvest. The procedure:
(§2) A limb trial was conducted to evaluate effects of bioactive gibberellins (GA), prohexadione-calcium (PCa), or combinations applied before harvest on fruit quality of sweet cherry. The most efficacious treatments were utilized in a larger scale trial to investigate their effects on the whole tree scale and postharvest characteristics of fruit. Twelve-year-old sweet cherry cv ‘Bing’ on ‘Gisela® 1’ rootstock was selected for both experiments and trained to a central leader architecture. Both trials were carried out at Washington State University Roza farm, Prosser, Wash., USA (N 46.2°, W 119.7°).
Three limbs with uniform vigor were selected from each of 10 trees. Treatments were applied to the limbs randomly spread across ten trees at 30 days after anthesis, approximately coinciding with the onset of pit hardening (stage II of fruit development) in ‘Bing’. The experiment consisted of 10 treatments, including water (the untreated control) and PCa at 150 mg/L. Bioactive GA1, GA3, and GA4/7 (70:30 GA4:GA7) were applied as a foliar spray at 30 mg/L alone or in combination with PCa at 150 mg/L. In addition, the combination of GA3 and GA4/7 at 30 mg/L was applied, or in combination with PCa at 150 mg/L. PCa was the commercial product Apogee® (27.5% PCa; BASF Corp., Research Triangle Park, N.C.) and all bioactive GAs (purity >90%) were purchased from OlChemIm Ltd. (Olomouc, Czech Republic). Each treatment was made with a pressurized handgun sprayer to entire limbs, ceasing at the first runoff.
Twenty fruit per treatment were randomly selected and flagged for monitoring fruit growth by measuring fruit equatorial diameter and height weekly after treatment. All current-season shoots on treated limbs were measured weekly to investigate treatment effects on shoot growth. Harvest timing was determined as the day when the majority of fruit had achieved commercial maturity, based on exocarp color. At harvest, all fruit on treated limbs were harvested and transported to the laboratory for fruit quality analysis. Floral bud density on the treated limbs was assessed by counting all spurs and the number of reproductive buds per spur.
All fruit from each limb in Experiment 1 and sub-samples from Experiment 2 were weighed individually and fruit size distribution was calculated according to fruit weight. Color sorting was conducted manually according to the color comparators developed by CTIFL (Centre Technique Interprofessionnel des Fruit et Legumes, France), which categorize cherry color into 8 levels from Green, CTIFL 1 to CTIFL 7. Fruit number in each category was counted and color distribution was assessed. Subsequently, all fruit were analyzed for firmness and row size measurement with a FirmTech 2 (BioWorks, Inc, Wamego, Kans.) at room temperature. Then, 25 fruit were randomly selected and 5 groups of 5 fruit were mixed for soluble solids content, pH and titratable acidity measurement. Fruit soluble solids were measured using a digital refractometer (Atago, Japan). Approximately 0.5 mL of juice was dropped directly onto the surface of the refractometer and the measurement immediately taken. Juice pH and titratable acidity were measured with a Mettler DL12 Titrator (Mettler-Toledo, Columbus, Ohio).
All trials were established as randomized complete-block designs. All data were subjected to analysis of variance using the General Linear Models (GLM) program of the SAS statistical analysis package (SAS Institute, Cary, N.C.).

The test system is the same in test [8]. The test is described as follows: Experiment 2: whole tree trial of PCa alone or with GA3 or GA4/7, applied 30 (FS) or 37 (SS) days after anthesis; fruit quality, storability, sensory analysis. The class given is in vivo, sweet cherry (Prunus avium). The procedure:
as §2
Experiment 2 included treatments at the whole tree level. Applications of GA3 or GA4/7 (70:30 GA4:GA7) were made to entire trees at 30 mg/L in combination with PCa at 150 mg/L. PCa (150 mg/L) alone was also applied and an untreated control treatment was included. To investigate the role of application timing of plant growth regulators, all treatments were applied at 30 (first spray (FS)) or 37 days after anthesis (second spray (SS)). In this experiment, 24 trees in the same orchard as those in Experiment 1 were selected for whole tree treatment and assigned randomly into one of two 12-tree groups for the timing study. Treatments were then randomly assigned to each of three trees per application timing. Treatments were applied to entire trees by pressurized handgun sprayer to the point of first runoff. All applications were completed in the morning between 0800 and 1100, and applied on days with little or no wind. To prevent spray drift onto neighboring experimental units, all the trees were selected in the same row and 2-3 trees were selected as ‘border’ trees between experimental units.
Twenty fruit per treatment were marked for weekly fruit size measurement, and six current terminal shoots were selected for monitoring shoot growth weekly after treatment. […] Whole tree yield was determined at harvest, in the field, with a portable digital scale. The effect of treatment on total yield per tree (kg tree^−1) and the yield of large fruit (29.8 mm+) (kg tree^−1) was assessed. […]
All fruit from each limb in Experiment 1 and sub-samples from Experiment 2 were weighed individually and fruit size distribution was calculated according to fruit weight. […] Fruit number in each category was counted and color distribution was assessed. Subsequently, all fruit were analyzed for firmness and row size measurement with a FirmTech 2 (BioWorks, Inc, Wamego, Kans.) at room temperature. […] Fruit soluble solids were measured using a digital refractometer (Atago, Japan). […] Juice pH and titratable acidity were measured with a Mettler DL12 Titrator (Mettler-Toledo, Columbus, Ohio). […]

The mark [9] stands for this setting: BABA at both concentrations (100 and 500 ppm), compared to control.

Turning to `CC(N)CC(=O)O` (racemic) [BABA, DL-β-aminobutyric acid], the “percentage of flowers killed” value is listed as “decreased” in test [1] (100 ppm BABA, −3.5° C. and −4.5° C., compared to control (untreated) trees); “decreased” in test [1] (500 ppm BABA, compared to control); “decreased” in the test with ‘Fuji’ apple trees; “decreased” in test [2] (natural frost the following spring); “decreased” in test [3]; “decreased” in test [4]. Moreover, the average leaf area entry in test [1] (setting [9]) is “increased”. Also, the fruit set result (in test [1] (setting [9]); in the test on plum cv. ‘PP7524-7’) was “increased” throughout. Moreover, the fruit size entry in test [1] (setting [9]) is given as “increased”. Also, in test [1] (setting [9]), the “leaf chlorophyll content index” value is given as “increased”. For the same molecule, the pistil survival entry in test [2] (after spring frost damage) was “increased”.
`O=C(O)COc1ccc(Cl)cc1` [4-CPA, 4-chlorophenoxyacetic acid]: in the test with sweet cherry cv. ‘Bing’ (CPA at 10 or 30 ppm at full bloom, small and large scale trials (FIG. 18)), the “fruit set compared with untreated control” value is on record as “higher”. Also, the “Fruit Set (%)” value in the test on sweet cherry cv. ‘Bing’ (‘Bing’, 30 ppm CPA applied to the flowers at full bloom, untreated 30.0) was determined as 58.0%; in [5] (untreated 26.0) it was 35.0%; in test [6] (untreated 7.0), 16.0%. The “Average fruit size” value in the test on sweet cherry cv. ‘Bing’ (‘Bing’, 30 ppm CPA at full bloom, at harvest, untreated 7.3) was found to be 8.4 g; in test [5] (at harvest, untreated 7.2) it was 8.6 g; in test [6] (at harvest, untreated 10.5) it was 13.6 g.
`C=C1C[C@]23C[C@@]1(O)CC[C@H]2[C@@]12CC[C@H](O)[C@@](C)(C(=O)O1)[C@H]2[C@@H]3C(=O)O` [GA1, gibberellin A1]: in test [7], the Firmness is 280.2^c g/mm, the Fruit diameter is 26.52^bc mm, the Fruit weight was 8.44^bc g and the TSS was 20.84^b Brix.
For the molecule `C=C1C[C@]23C[C@@]1(O)CC[C@H]2[C@@]12C=C[C@H](O)[C@@](C)(C(=O)O1)[C@H]2[C@@H]3C(=O)O` [GA3, gibberellin A3], in test [7], the Firmness is given as 316.9^a g/mm, the Fruit diameter is recorded as 26.49^bc mm, the Fruit weight is listed as 8.23^cd g and the TSS is on record as 22.23^a Brix.
Consider `CCC(=O)C1=C(O)CC(C(=O)O)CC1=O` (stereo not shown) [PCa, calcium 3-oxido-4-propionyl-5-oxo-cyclohexene carboxylate], for which, in [7], the Firmness is given as 278.3^c g/mm, the Fruit diameter is on record as 24.75^f mm, the Fruit weight is listed as 7.26^f g and the TSS was 19.18^cd Brix. Further, in [7] (limb trial, single application at 30 days after anthesis), the “effect on fruit weight / fruit size compared with the untreated control” value is recorded as “no positive effect”. For the same molecule, in [7] (single application, after terminal bud set (FIG. 8)), the “length of current season extension shoots relative to untreated” value is reported as “less than half the length”. In test [8] (30 days at 4° C., spray timing not stated, 5% for untreated trees), the “fruit categorized as healthy after storage” value is on record as under 10%. Further, the “increase in fruit in the ≧10 g category compared to the control” value in test [8] (both first and second spray timings) is listed as 15%. Moreover, the “percentage of fruit with green and turgid pedicels after storage” value in test [8] (first spray treatments, control 30%) is reported as 24%. Also, in [8] (single spray, irrespective of timing, compared with the control and PCa+GAs), the “shoot growth / vegetative extension growth” value was “reduced; also recorded: reductions”.

These data come from US8680014B2, “Methods for improving fruit production and fruit quality” (Washington State University Research Foundation, priority 2010, dated 2014).
